Experimental data: patent US12509447B2, “Small molecule compound” (Technoderma Medicines Pte Ltd, priority 2019, dated 2025)
Values belong to the compound of their own block, whether it stands above or below them.

Tests used:
Type in all cases: biochemical
[1] = molecular target: JAK1 (Homo sapiens, UniProt P23458); test: Inhibition of JAK kinase activity, EZ Reader microfluidic phosphorylation of peptide substrate: JAK1; settings: JAK1 kinase 20 nM; highest final concentration 10 μM, 1:3 serial dilution, 8 points, duplicates
JAK1, sequence (P23458 whole entry): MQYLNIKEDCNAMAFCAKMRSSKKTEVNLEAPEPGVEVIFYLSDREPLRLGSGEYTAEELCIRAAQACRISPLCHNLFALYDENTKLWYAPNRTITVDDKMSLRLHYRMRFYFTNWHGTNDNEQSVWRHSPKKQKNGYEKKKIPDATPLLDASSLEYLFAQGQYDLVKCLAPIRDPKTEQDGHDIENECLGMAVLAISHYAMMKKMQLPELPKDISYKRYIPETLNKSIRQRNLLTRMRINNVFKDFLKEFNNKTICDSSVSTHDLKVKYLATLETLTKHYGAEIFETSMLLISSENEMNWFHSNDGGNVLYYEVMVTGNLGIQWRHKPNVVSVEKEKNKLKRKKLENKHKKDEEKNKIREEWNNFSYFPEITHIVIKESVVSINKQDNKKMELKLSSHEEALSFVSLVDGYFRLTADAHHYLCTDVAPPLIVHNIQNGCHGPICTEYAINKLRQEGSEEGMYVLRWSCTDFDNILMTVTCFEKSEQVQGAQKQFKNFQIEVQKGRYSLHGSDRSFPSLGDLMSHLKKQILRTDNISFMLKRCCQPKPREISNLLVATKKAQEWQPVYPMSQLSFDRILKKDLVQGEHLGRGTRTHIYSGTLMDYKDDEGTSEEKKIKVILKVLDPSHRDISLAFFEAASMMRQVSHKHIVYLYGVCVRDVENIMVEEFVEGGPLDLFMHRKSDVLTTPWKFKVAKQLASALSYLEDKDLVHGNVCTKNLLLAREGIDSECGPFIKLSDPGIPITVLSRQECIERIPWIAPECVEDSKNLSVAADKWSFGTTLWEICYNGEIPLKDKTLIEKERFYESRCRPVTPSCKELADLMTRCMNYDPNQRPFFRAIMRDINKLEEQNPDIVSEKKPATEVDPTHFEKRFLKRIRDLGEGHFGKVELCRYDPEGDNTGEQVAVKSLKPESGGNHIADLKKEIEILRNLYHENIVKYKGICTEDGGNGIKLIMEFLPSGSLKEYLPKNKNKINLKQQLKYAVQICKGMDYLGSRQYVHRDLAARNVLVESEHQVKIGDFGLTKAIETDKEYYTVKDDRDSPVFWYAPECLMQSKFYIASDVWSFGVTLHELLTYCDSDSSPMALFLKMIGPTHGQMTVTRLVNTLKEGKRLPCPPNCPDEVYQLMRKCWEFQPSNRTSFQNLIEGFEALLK
Procedure, shortened: (§1)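 Microfluidic mobility-shift assay reading fluorescent peptide substrate and product; kinases at 20 nM (JAK1) or 1 nM (JAK2, JAK3, Tyk2) in pH 7.4 HEPES with 10 mM MgCl2, run at room temperature to 20-30% conversion, then stopped with EDTA. Compounds tested from 10 μM top, 1:3 over 8 points in duplicate; IC50 fitted from % conversion.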

[2] = molecular target: T1, JAK3 (Homo sapiens, UniProt P52333); test: Inhibition of JAK kinase activity, EZ Reader microfluidic phosphorylation of peptide substrate: JAK3; settings: JAK3 kinase 1 nM; highest final concentration 10 μM, 1:3 serial dilution, 8 points, duplicates
T1 sequence (P52333 1-1124): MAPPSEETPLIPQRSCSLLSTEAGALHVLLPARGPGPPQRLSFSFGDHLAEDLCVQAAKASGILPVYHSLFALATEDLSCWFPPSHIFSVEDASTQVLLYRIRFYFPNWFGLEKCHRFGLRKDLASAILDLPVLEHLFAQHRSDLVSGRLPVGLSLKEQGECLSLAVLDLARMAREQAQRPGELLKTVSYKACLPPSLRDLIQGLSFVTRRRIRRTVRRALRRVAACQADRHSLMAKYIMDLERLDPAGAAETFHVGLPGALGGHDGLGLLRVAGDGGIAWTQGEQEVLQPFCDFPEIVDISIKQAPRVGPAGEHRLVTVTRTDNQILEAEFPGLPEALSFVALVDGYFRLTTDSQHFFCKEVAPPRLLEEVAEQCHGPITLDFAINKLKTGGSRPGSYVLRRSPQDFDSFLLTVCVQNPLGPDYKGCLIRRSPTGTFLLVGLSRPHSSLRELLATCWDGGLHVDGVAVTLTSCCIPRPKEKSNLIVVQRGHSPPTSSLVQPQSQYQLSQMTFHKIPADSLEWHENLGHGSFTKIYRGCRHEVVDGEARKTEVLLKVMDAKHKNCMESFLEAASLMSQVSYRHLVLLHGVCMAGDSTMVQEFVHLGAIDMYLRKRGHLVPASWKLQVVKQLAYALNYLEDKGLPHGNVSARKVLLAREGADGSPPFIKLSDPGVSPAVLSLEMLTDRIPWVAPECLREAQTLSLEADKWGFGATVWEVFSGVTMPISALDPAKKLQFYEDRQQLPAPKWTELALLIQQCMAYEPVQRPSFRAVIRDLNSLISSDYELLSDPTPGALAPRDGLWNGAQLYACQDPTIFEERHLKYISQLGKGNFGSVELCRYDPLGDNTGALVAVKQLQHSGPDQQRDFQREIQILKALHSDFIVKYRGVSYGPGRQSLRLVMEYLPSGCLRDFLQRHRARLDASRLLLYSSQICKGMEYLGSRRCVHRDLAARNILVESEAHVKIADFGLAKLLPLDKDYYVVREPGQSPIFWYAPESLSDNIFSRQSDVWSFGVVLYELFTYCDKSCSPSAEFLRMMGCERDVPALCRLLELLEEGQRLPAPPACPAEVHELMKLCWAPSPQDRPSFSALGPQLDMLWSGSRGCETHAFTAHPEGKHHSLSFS
Procedure, shortened: as §1

[3] = molecular target: JAK2 (Homo sapiens, UniProt O60674); test: Inhibition of JAK kinase activity, EZ Reader microfluidic phosphorylation of peptide substrate: JAK2; settings: JAK2 kinase 1 nM; highest final concentration 10 μM, 1:3 serial dilution, 8 points, duplicates
JAK2, sequence (O60674 whole entry): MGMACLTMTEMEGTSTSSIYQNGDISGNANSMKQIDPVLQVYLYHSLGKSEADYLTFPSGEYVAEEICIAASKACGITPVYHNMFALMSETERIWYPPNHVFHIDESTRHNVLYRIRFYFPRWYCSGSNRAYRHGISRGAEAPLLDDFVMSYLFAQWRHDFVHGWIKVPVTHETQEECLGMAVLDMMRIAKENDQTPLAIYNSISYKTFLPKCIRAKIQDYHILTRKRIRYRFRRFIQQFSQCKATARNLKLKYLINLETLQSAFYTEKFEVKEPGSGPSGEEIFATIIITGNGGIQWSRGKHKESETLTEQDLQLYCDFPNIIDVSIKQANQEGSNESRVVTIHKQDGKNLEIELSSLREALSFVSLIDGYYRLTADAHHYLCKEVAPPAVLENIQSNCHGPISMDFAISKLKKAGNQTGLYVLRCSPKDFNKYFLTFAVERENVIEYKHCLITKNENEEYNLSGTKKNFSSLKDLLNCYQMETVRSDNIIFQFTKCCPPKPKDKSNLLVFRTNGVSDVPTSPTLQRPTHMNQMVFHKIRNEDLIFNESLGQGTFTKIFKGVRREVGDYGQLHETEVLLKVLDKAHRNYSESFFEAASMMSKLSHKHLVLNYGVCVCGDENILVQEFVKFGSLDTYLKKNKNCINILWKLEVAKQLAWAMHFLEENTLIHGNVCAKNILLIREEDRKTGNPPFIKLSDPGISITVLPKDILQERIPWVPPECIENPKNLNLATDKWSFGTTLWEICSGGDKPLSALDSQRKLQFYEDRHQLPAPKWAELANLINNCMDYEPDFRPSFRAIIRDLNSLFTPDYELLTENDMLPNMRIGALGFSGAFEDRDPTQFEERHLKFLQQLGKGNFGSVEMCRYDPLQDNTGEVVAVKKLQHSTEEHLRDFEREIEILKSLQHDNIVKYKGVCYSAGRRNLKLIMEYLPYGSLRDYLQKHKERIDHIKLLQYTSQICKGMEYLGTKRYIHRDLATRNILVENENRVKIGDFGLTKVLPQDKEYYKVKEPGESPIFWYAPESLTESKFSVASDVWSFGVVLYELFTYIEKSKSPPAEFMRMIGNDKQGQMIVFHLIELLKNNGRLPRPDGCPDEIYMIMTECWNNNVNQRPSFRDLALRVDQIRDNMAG
Procedure, shortened: as §1

[4] = molecular target: Tyk2 (Homo sapiens, UniProt P29597); test: Inhibition of JAK kinase activity, EZ Reader microfluidic phosphorylation of peptide substrate: Tyk2; settings: Tyk2 kinase 1 nM; highest final concentration 10 μM, 1:3 serial dilution, 8 points, duplicates
Tyk2, sequence (P29597 whole entry): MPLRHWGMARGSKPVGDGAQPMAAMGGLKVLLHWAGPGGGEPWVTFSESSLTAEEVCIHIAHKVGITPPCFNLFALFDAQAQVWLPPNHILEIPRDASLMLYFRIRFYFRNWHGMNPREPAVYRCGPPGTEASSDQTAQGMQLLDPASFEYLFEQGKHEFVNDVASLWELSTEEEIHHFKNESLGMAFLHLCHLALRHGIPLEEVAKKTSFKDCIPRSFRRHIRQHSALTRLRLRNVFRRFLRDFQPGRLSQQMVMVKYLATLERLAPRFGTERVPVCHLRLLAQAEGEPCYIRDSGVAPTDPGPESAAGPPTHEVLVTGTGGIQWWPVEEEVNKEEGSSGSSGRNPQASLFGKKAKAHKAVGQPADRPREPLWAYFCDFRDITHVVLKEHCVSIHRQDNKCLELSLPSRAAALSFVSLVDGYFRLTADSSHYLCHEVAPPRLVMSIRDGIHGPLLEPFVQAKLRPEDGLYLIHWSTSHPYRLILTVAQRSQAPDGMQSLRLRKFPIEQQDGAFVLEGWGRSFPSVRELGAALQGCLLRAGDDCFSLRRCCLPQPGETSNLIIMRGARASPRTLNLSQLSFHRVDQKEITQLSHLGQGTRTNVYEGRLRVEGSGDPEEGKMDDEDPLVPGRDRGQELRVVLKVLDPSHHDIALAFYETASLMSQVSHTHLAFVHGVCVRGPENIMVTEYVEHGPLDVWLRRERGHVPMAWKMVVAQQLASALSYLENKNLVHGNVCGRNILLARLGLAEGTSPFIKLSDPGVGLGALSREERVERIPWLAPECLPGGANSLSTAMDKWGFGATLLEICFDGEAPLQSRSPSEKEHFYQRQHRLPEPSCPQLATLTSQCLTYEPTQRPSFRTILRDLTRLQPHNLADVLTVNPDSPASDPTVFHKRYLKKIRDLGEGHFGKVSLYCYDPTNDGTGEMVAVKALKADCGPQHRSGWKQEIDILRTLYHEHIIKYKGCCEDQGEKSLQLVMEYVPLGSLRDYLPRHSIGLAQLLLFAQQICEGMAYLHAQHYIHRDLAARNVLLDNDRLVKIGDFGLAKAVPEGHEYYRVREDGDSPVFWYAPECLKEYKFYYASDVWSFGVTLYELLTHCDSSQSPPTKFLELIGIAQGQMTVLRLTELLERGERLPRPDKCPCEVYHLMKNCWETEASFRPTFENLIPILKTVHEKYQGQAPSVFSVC
Procedure, shortened: as §1

SMILES: C=CCS(=O)(=O)N1CC(CC#N)(n2cc(-c3ccnc(Nc4cnn(C)c4)n3)cn2)C1 [TDM-180800, 2-(1-(allylsulfonyl)-3-(4-(2-((1-methyl-1H-pyrazol-4-yl)amino)pyrimidin-4-yl)-1H-pyrazol-1-yl)azetidin-3-yl)acetonitrile]
IC50 [1]: 0.1 to 1 µM
IC50 [2]: 1 to 10 µM
IC50 [3]: 0.1 to 1 µM
IC50 [4]: 0.1 to 1 µM

SMILES: CN1CCN(c2ccc(-c3ccnc(Nc4cnn(C)c4)n3)cc2)CC1 [TDM-180828, N-(1-methyl-1H-pyrazol-4-yl)-4-(4-(4-methylpiperazin-1-yl)phenyl)pyrimidin-2-amine]
IC50 [1]: 1 to 10 µM
IC50 [2]: ≥ 10 µM
IC50 [3]: 1 to 10 µM
IC50 [4]: 1 to 10 µM

SMILES: Cn1cc(Nc2nccc(-c3ccn(C4(CC#N)CN(S(=O)(=O)CCCF)C4)c3)n2)cn1 [TDM-180854, 2-(1-((3-fluoropropyl)sulfonyl)-3-(3-(2-((1-methyl-1H-pyrazol-4-yl)amino)pyrimidin-4-yl)-1H-pyrrol-1-yl)azetidin-3-yl)acetonitrile]
IC50 [1]: 0.1 to 1 µM
IC50 [2]: 1 to 10 µM
IC50 [3]: < 0.1 µM
IC50 [4]: 0.1 to 1 µM

Now from value to compound:

IC50 [1]: 1 to 10 µM
IC50 [2]: ≥ 10 µM
IC50 [3]: 0.1 to 1 µM
IC50 [4]: 0.1 to 1 µM
SMILES: CCCCS(=O)(=O)N1CC(CC#N)(n2cc(-c3ccnc(Nc4cnn(C)c4)n3)cn2)C1 [TDM-180807, 2-(1-(butylsulfonyl)-3-(4-(2-((1-methyl-1H-pyrazol-4-yl)amino)pyrimidin-4-yl)-1H-pyrazol-1-yl)azetidin-3-yl)acetonitrile]

IC50 [1]: 0.1 to 1 µM
IC50 [2]: 1 to 10 µM
IC50 [3]: 0.1 to 1 µM
IC50 [4]: 0.1 to 1 µM
SMILES: Cn1cc(Nc2nccc(-c3cnn(C4(CC#N)CN(S(=O)(=O)CCC(F)(F)F)C4)c3)n2)cn1 [TDM-180808, 2-(3-(4-(2-((1-methyl-1H-pyrazol-4-yl)amino)pyrimidin-4-yl)-1H-pyrazol-1-yl)-1-((3,3,3-trifluoropropyl)sulfonyl)azetidin-3-yl)acetonitrile]

IC50 [1]: 1 to 10 µM
IC50 [2]: ≥ 10 µM
IC50 [3]: 0.1 to 1 µM
IC50 [4]: 1 to 10 µM
SMILES: CC(=O)N1CCN(c2ccc(-c3ccnc(Nc4cnn(C)c4)n3)cc2)CC1 [TDM-180827, 1-(4-(4-(2-((1-methyl-1H-pyrazol-4-yl)amino)pyrimidin-4-yl)phenyl)piperazin-1-yl)ethan-1-one]

IC50 [1]: 0.1 to 1 µM
IC50 [2]: 1 to 10 µM
IC50 [3]: 0.1 to 1 µM
IC50 [4]: 0.1 to 1 µM
SMILES: Cn1cc(Nc2nccc(-c3ccn(C4(CC#N)CN(S(=O)(=O)C5CCOCC5)C4)c3)n2)cn1 [TDM-180855, 2-(3-(3-(2-((1-methyl-1H-pyrazol-4-yl)amino)pyrimidin-4-yl)-1H-pyrrol-1-yl)-1-((tetrahydro-2H-pyran-4-yl)sulfonyl)azetidin-3-yl)acetonitrile]
